pEC50, pIC50: −log10 of the molar value. Several values for one entry are separate records, joined by “and”; a condition that tells them apart may be missing. Equal values may be shown once. Read-outs that look alike come from different tables or passages of the source.
Tests used:
CDK12–cyclin K = CDK12–cyclin K (Homo sapiens, UniProt Q9NYV4); assay: Lanthascreen kinase binding assay, CDK12; conditions: for Lanthascreen raw signal, sheet CDK12: duplicates
Protocol: (§1) Lanthascreen experiments were performed using commercially available reagents (Thermo Fisher) and according to the manufacturer’s instructions.

HEK293T cells = assay: Drug sensitivity assay (CellTiter-Glo viability) with or without MLN4924 pretreatment; assay type: cell-based, human; conditions: Supplementary Table 2
Summary of the method: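 HEK293T–Cas9 cells at 0.15 × 10^6 ml^−1 were treated with DMSO or 100 nM MLN4924 before plating. Test drugs were added 2 h later and exposure lasted 3 days. Viability was read by CellTiter-Glo luminescence and expressed relative to DMSO controls.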

CDK9–cyclin T = biological target: T1, CDK9–cyclin T (Homo sapiens, UniProt P50750); assay: Lanthascreen kinase binding assay, CDK9; conditions: for Lanthascreen TR-FRET signal (raw ratio), sheet CDK9: duplicates
T1 construct: purchased Thermo Fisher
T1 sequence (P50750 whole entry): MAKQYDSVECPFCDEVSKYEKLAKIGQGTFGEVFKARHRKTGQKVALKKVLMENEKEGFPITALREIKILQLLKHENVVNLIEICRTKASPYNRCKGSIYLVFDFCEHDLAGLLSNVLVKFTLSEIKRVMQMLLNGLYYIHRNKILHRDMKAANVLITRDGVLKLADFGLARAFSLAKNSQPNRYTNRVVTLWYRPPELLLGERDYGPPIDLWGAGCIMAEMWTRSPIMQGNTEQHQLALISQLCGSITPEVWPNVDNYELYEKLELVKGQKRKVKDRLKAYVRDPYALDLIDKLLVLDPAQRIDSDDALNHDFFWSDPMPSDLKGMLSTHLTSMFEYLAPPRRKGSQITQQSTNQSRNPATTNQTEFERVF
T1 sequence (O60563 whole entry partner): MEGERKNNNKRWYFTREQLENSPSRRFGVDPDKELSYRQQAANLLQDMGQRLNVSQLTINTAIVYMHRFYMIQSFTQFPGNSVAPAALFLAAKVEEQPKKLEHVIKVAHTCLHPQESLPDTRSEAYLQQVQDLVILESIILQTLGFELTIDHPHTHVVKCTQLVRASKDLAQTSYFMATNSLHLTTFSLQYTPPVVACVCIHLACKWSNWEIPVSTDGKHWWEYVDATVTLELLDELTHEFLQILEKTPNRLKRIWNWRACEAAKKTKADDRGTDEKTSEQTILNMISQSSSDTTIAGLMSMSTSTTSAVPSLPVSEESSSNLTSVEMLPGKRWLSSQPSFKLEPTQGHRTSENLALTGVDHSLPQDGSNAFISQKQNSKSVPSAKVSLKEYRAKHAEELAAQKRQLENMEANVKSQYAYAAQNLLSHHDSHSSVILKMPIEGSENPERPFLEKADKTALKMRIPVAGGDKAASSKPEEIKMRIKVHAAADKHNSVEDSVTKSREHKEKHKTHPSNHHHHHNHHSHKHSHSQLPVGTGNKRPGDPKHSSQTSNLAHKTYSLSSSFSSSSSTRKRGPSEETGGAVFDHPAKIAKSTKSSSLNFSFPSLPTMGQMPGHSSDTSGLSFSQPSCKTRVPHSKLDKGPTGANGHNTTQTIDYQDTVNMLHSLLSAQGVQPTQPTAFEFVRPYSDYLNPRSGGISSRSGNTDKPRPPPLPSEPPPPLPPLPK
Protocol: as §1

CDK2–cyclin A = biological target: T2, CDK2–cyclin A (Homo sapiens, UniProt P24941); assay: Lanthascreen kinase binding assay, CDK2; conditions: for Lanthascreen signal, sheet CDK2: raw replicates
T2 construct: purchased Thermo Fisher
Protocol: as §1

[1] = system: cyclin K–eGFP degradation reporter; assay: Cyclin K reporter stability analysis (dual-color cyclin K–eGFP reporter); assay type: cell-based, human; conditions: source data sheet correlations; read-out: DC50
Summary of the method: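 HEK293T–Cas9 cells carrying the cyclin K–eGFP reporter were seeded at 1 × 10^6 ml^−1 and exposed to drug or DMSO for 5 h. Flow cytometry gave geometric means of eGFP and mCherry in round, mCherry-positive cells. The eGFP/mCherry ratio was normalized to the mean of three DMSO controls.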

Sequence of CDK12–cyclin K (Q9NYV4 713-1052): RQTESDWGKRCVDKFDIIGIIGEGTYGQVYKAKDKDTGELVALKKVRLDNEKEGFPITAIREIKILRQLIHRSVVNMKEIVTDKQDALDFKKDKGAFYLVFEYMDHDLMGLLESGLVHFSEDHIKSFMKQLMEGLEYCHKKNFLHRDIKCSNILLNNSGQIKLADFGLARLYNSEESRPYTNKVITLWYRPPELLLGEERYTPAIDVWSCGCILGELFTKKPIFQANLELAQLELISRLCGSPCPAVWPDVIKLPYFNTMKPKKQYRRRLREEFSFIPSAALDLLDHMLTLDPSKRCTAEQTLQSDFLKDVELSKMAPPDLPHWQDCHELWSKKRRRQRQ
Sequence of CDK12–cyclin K (O75909 1-267 partner limits assumed): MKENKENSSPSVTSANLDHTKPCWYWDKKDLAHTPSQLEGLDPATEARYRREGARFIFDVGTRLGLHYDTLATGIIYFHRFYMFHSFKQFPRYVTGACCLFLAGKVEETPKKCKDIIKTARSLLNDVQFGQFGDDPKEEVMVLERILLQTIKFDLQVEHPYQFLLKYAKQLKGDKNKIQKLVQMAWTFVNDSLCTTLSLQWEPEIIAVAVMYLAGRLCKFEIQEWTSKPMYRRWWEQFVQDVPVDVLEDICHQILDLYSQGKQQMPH

IC50 (CDK12–cyclin K; Supplementary Table 2, read-out: Lanthascreen IC50 [nM] CDK12): 6550 nM | Lanthascreen raw signal, sheet CDK12 (CDK12–cyclin K; compound 0.038147 nM, series r13): 0.01232 and 0.01243 | Lanthascreen raw signal, sheet CDK12 (CDK12–cyclin K; compound 0.038147 nM, series r49): 0.008613 and 0.007971 | Lanthascreen raw signal, sheet CDK12 (CDK12–cyclin K; compound 0.152588 nM, series r13): 0.01076 and 0.01116 | Lanthascreen raw signal, sheet CDK12 (CDK12–cyclin K; compound 0.152588 nM, series r49): 0.01012 and 0.009882 | Lanthascreen raw signal, sheet CDK12 (CDK12–cyclin K; compound 0.610352 nM, series r13): 0.0114 and 0.01052 | Lanthascreen raw signal, sheet CDK12 (CDK12–cyclin K; compound 0.610352 nM, series r49): 0.009497 and 0.01011 | Lanthascreen raw signal, sheet CDK12 (CDK12–cyclin K; compound 1.02544 nM, series r1): 0.009042 and 0.01099 | Lanthascreen raw signal, sheet CDK12 (CDK12–cyclin K; compound 3.15521 nM, series r1): 0.01068 and 0.009679 | Lanthascreen raw signal, sheet CDK12 (CDK12–cyclin K; compound 9.46563 nM, series r1): 0.009286 and 0.009664 | Lanthascreen raw signal, sheet CDK12 (CDK12–cyclin K; compound 9.76563 nM, series r13): 0.01092 and 0.01022 | Lanthascreen raw signal, sheet CDK12 (CDK12–cyclin K; compound 9.76563 nM, series r49): 0.01048 and 0.01041 | Lanthascreen raw signal, sheet CDK12 (CDK12–cyclin K; compound 31.5521 nM, series r1): 0.009025 and 0.009021 | Lanthascreen raw signal, sheet CDK12 (CDK12–cyclin K; compound 39.0625 nM, series r13): 0.01118 and 0.01016 | Lanthascreen raw signal, sheet CDK12 (CDK12–cyclin K; compound 39.0625 nM, series r49): 0.009518 and 0.009698 | Lanthascreen raw signal, sheet CDK12 (CDK12–cyclin K; compound 99.3891 nM, series r1): 0.008619 and 0.008828 | Lanthascreen raw signal, sheet CDK12 (CDK12–cyclin K; compound 156.25 nM, series r13): 0.01038 and 0.009956 | Lanthascreen raw signal, sheet CDK12 (CDK12–cyclin K; compound 156.25 nM, series r49): 0.009802 and 0.01107 | Lanthascreen raw signal, sheet CDK12 (CDK12–cyclin K; compound 315.521 nM, series r1): 0.009446 and 0.008194 | Lanthascreen raw signal, sheet CDK12 (CDK12–cyclin K; compound 625 nM, series r13): 0.01123 and 0.01103 | Lanthascreen raw signal, sheet CDK12 (CDK12–cyclin K; compound 625 nM, series r49): 0.008992 and 0.00907 | Lanthascreen raw signal, sheet CDK12 (CDK12–cyclin K; compound 2500 nM, series r13): 0.01034 and 0.009721 | Lanthascreen raw signal, sheet CDK12 (CDK12–cyclin K; compound 2500 nM, series r49): 0.009117 and 0.008384 | Lanthascreen raw signal, sheet CDK12 (CDK12–cyclin K; compound 3155.21 nM, series r1): 0.008559 and 0.007567 | Lanthascreen raw signal, sheet CDK12 (CDK12–cyclin K; compound 10000 nM, series r13): 0.008264 | Lanthascreen raw signal, sheet CDK12 (CDK12–cyclin K; compound 10000 nM, series r49): 0.007507 and 0.007835 | Lanthascreen raw signal, sheet CDK12 (CDK12–cyclin K; compound 10002 nM, series r1): 0.008529 and 0.007315 | IC50 (CDK9–cyclin T; Supplementary Table 2, read-out: Lanthascreen IC50 [nM] CDK9): 2460 nM | Lanthascreen TR-FRET signal (raw ratio), sheet CDK9 (CDK9–cyclin T; compound 0.038147 nM, second titration set (r13)): 0.01401 and 0.01443 | Lanthascreen TR-FRET signal (raw ratio), sheet CDK9 (CDK9–cyclin T; compound 0.152588 nM, second titration set (r13)): 0.01297 and 0.01342 | Lanthascreen TR-FRET signal (raw ratio), sheet CDK9 (CDK9–cyclin T; compound 0.610352 nM, second titration set (r13)): 0.01434 and 0.01401 | Lanthascreen TR-FRET signal (raw ratio), sheet CDK9 (CDK9–cyclin T; compound 1.02544 nM, first titration set (r1)): 0.01509 and 0.01456 | Lanthascreen TR-FRET signal (raw ratio), sheet CDK9 (CDK9–cyclin T; compound 3.15521 nM, first titration set (r1)): 0.01409 and 0.01238 | Lanthascreen TR-FRET signal (raw ratio), sheet CDK9 (CDK9–cyclin T; compound 9.46563 nM, first titration set (r1)): 0.01419 and 0.01391 | Lanthascreen TR-FRET signal (raw ratio), sheet CDK9 (CDK9–cyclin T; compound 9.76563 nM, second titration set (r13)): 0.01424 and 0.01466 | Lanthascreen TR-FRET signal (raw ratio), sheet CDK9 (CDK9–cyclin T; compound 31.5521 nM, first titration set (r1)): 0.01363 and 0.01274 | Lanthascreen TR-FRET signal (raw ratio), sheet CDK9 (CDK9–cyclin T; compound 39.0625 nM, second titration set (r13)): 0.01378 and 0.01422 | Lanthascreen TR-FRET signal (raw ratio), sheet CDK9 (CDK9–cyclin T; compound 99.3891 nM, first titration set (r1)): 0.01334 and 0.01404 | Lanthascreen TR-FRET signal (raw ratio), sheet CDK9 (CDK9–cyclin T; compound 156.25 nM, second titration set (r13)): 0.01404 and 0.01353 | Lanthascreen TR-FRET signal (raw ratio), sheet CDK9 (CDK9–cyclin T; compound 315.521 nM, first titration set (r1)): 0.01521 and 0.01465 | Lanthascreen TR-FRET signal (raw ratio), sheet CDK9 (CDK9–cyclin T; compound 625 nM, second titration set (r13)): 0.01264 and 0.01274 | Lanthascreen TR-FRET signal (raw ratio), sheet CDK9 (CDK9–cyclin T; compound 2500 nM, second titration set (r13)): 0.01019 and 0.009296 | Lanthascreen TR-FRET signal (raw ratio), sheet CDK9 (CDK9–cyclin T; compound 3155.21 nM, first titration set (r1)): 0.008036 and 0.01025 | Lanthascreen TR-FRET signal (raw ratio), sheet CDK9 (CDK9–cyclin T; compound 10000 nM, second titration set (r13)): 0.006352 and 0.006436 | Lanthascreen TR-FRET signal (raw ratio), sheet CDK9 (CDK9–cyclin T; compound 10002 nM, first titration set (r1)): 0.007034 and 0.007071 | Lanthascreen signal, sheet CDK2 (CDK2–cyclin A; Compound 0.038147 nM, experiment r13-r23): 0.01291 and 0.01309 | Lanthascreen signal, sheet CDK2 (CDK2–cyclin A; Compound 0.038147 nM, experiment r48-r58): 0.01261 and 0.01224 | Lanthascreen signal, sheet CDK2 (CDK2–cyclin A; Compound 0.152588 nM, experiment r13-r23): 0.01309 and 0.01357 | Lanthascreen signal, sheet CDK2 (CDK2–cyclin A; Compound 0.152588 nM, experiment r48-r58): 0.01492 and 0.0157 | Lanthascreen signal, sheet CDK2 (CDK2–cyclin A; Compound 0.610352 nM, experiment r13-r23): 0.01337 and 0.01331 | Lanthascreen signal, sheet CDK2 (CDK2–cyclin A; Compound 0.610352 nM, experiment r48-r58): 0.01553 and 0.01443 | Lanthascreen signal, sheet CDK2 (CDK2–cyclin A; Compound 1.02544 nM, experiment r1-r11): 0.008871 and 0.008854 | Lanthascreen signal, sheet CDK2 (CDK2–cyclin A; Compound 3.15521 nM, experiment r1-r11): 0.01028 and 0.01056 | Lanthascreen signal, sheet CDK2 (CDK2–cyclin A; Compound 9.46563 nM, experiment r1-r11): 0.01086 and 0.009918 | Lanthascreen signal, sheet CDK2 (CDK2–cyclin A; Compound 9.76563 nM, experiment r13-r23): 0.01301 and 0.01353 | Lanthascreen signal, sheet CDK2 (CDK2–cyclin A; Compound 9.76563 nM, experiment r48-r58): 0.01491 and 0.01554 | Lanthascreen signal, sheet CDK2 (CDK2–cyclin A; Compound 31.5521 nM, experiment r1-r11): 0.008252 and 0.009758 | Lanthascreen signal, sheet CDK2 (CDK2–cyclin A; Compound 39.0625 nM, experiment r13-r23): 0.01344 and 0.01357 | Lanthascreen signal, sheet CDK2 (CDK2–cyclin A; Compound 39.0625 nM, experiment r48-r58): 0.01615 and 0.01531 | Lanthascreen signal, sheet CDK2 (CDK2–cyclin A; Compound 99.3891 nM, experiment r1-r11): 0.01148 and 0.009734 | Lanthascreen signal, sheet CDK2 (CDK2–cyclin A; Compound 156.25 nM, experiment r13-r23): 0.01338 and 0.01316 | Lanthascreen signal, sheet CDK2 (CDK2–cyclin A; Compound 156.25 nM, experiment r48-r58): 0.01495 and 0.01468 | Lanthascreen signal, sheet CDK2 (CDK2–cyclin A; Compound 315.521 nM, experiment r1-r11): 0.01013 and 0.01019 | Lanthascreen signal, sheet CDK2 (CDK2–cyclin A; Compound 625 nM, experiment r13-r23): 0.01286 and 0.01329 | Lanthascreen signal, sheet CDK2 (CDK2–cyclin A; Compound 625 nM, experiment r48-r58): 0.01515 and 0.01544 | Lanthascreen signal, sheet CDK2 (CDK2–cyclin A; Compound 2500 nM, experiment r13-r23): 0.01297 and 0.01246 | Lanthascreen signal, sheet CDK2 (CDK2–cyclin A; Compound 2500 nM, experiment r48-r58): 0.0142 and 0.01439 | Lanthascreen signal, sheet CDK2 (CDK2–cyclin A; Compound 3155.21 nM, experiment r1-r11): 0.01019 and 0.009543 | Lanthascreen signal, sheet CDK2 (CDK2–cyclin A; Compound 10000 nM, experiment r13-r23): 0.01011 and 0.01128 | Lanthascreen signal, sheet CDK2 (CDK2–cyclin A; Compound 10000 nM, experiment r48-r58): 0.01389 and 0.01345 | Lanthascreen signal, sheet CDK2 (CDK2–cyclin A; Compound 10002 nM, experiment r1-r11): 0.009534 and 0.01103 | pIC50 (CDK2–cyclin A; Lanthascreen, average, Extended Data Fig. 8, read-out: CDK2 IC50): < 5.00 | IC50 (CDK2–cyclin A; Supplementary Table 2, read-out: Lanthascreen IC50 [nM] CDK2): > 10000 nM | DC50 [1]: 1.21 µM
SMILES: Cc1ccc(C(=O)N2CSCC2C(=O)Nc2ncc(C)s2)o1 (stereo not shown) [dCeMM4]
pEC50 (HEK293T cells; Homo sapiens, HEK-293T, HEK293T viability, 72 h, compound alone, read-out: Cellular assays EC50): 5.58 | Toxicity rescue (HEK293T cells; MLN4924-mediated cytotoxicity rescue, 10 µM used where n.d.): 281%
